Experimental data reported in patent US20230285364A1, “USE OF A DHODH INHIBITOR COMPOUND IN COMBINATION CANCER THERAPY” (Servier Pharmaceuticals LLC, priority 2020, published 2023).
Read-outs that look alike come from different tables or passages of the source.

Tests used:
[1] = tested on: MOLM13 xenograft model of AML; assay type: in vivo
Method: 5 × 10^6 MOLM13 cells were implanted subcutaneously into 5-6 week-old female CB17 SCID mice in serum free media with Matrigel 1:1. Tumor volume and body weights were monitored twice a week until the tumors reached ~ 150 mm^3. […] At the end of study, tumor, plasma, and liver tissues were collected at the indicated timepoints post-last dose for PK and biomarker analyses. […] Venetoclax was formulated with 60% Phosal 50, 30% PEG 400, and 10% ethanol and stored at 4° C.

[2] = tested on: OCILY19 xenograft model of DLBCL; assay type: in vivo
Method: 5 × 10^6 OCILY cells were implanted subcutaneously into 5-6 week-old female CB17 SCID mice in serum free media with Matrigel 1:1. Tumor volume and body weights were monitored twice a week until the tumors reached ~ 150 mm^3. […] At the end of study, tumor, plasma, and liver tissues were collected at the indicated timepoints post-last dose for PK and biomarker analyses. […] Venetoclax was formulated with 60% Phosal 50, 30% PEG 400, and 10% ethanol and stored at 4° C.

[3] = cited from earlier work

For “4-(4-{ [2-(4-chlorophenyl)-4,4- dimethylcyclohex-1-en-1-yl]methyl}piperazin-1-yl)-N-({3-nitro-4-[(tetrahydro-2H-pyran-4-ylmethyl)amino]phenyl}sulfonyl)-2-(1H-pyrrolo[2,3-b]pyridin-5-yloxy)benzamide) [Venetoclax]”, the “Tumor Growth Inhibition” value ([1]; Venetoclax 30 mg/kg alone) was 27%, the “Tumor Growth Inhibition” value ([2]; Venetoclax 1 mg/kg alone) was 3.6% and the “effect on tumor growth” value ([2]; venetoclax alone at the 1 m/kg dose) was “no effect”.
For `Nc1ncn([C@@H]2O[C@H](CO)[C@@H](O)[C@H]2O)c(=O)n1` [Azacitidine, 4-amino-1-β-D-ribofuranozyl-s-triazin-2(1H)-one], the solubility ([3]; acetone, ethanol and methyl ketone) is given as “insoluble”, the solubility ([3]; dimethylsulfoxide (DMSO)) is given as “soluble” and the solubility ([3]; ethanol/water (50/50), propylene glycol and polyethylene glycol) is given as “slightly soluble”. The solubility ([3]; water, water-saturated octanol, 5% dextrose in water, N-methyl-2-pyrrolidone, normal saline and 5% Tween 80 in water) was “sparingly soluble”.
With `Cc1ccccc1-c1ccc(-c2cc(C(=O)O)c3c(c2)nnn3C)cc1` [Compound 1, 1-methyl-5-(2′-methyl-[1,1′-biphenyl]-yl)-1H-benzo[d][1,2,3]triazole-7-carboxylic acid] the “Tumor Growth Inhibition” value ([1]; Compound 1 30 mg/kg alone) was 24% and the “Tumor Growth Inhibition” value ([2]; Compound 1 30 mg/kg BID alone) was 56%.
In the case of `Nc1ncn([C@H]2C[C@H](O)[C@@H](CO)O2)c(=O)n1` [Decitabine, 4-amino-1-(2-deoxy-β-D-erythro-pentofuranosyl)-1,3,5-triazin-2(1H)one], the solubility ([3]; dimethylsulfoxide (DMSO)) is given as “soluble”, the solubility ([3]; ethanol/water (50/50), methanol/water (50/50) and methanol) is given as “slightly soluble” and the solubility ([3]; water) is given as “sparingly soluble”.
